According to patent US20170143701A1, “CARBOHYDRATE METABOLISM-AMELIORATING AGENT” (SUNTORY HOLDINGS LIMITED, priority 2014, published 2017):

Key:
[1] = system: NCI-H716 cells; assay: In vitro GLP-1 secretion-accelerating action: amount of active GLP-1 secreted (ELISA); type: cell-based; settings: Table 4, Experiment 4, 1 hour; for Significant difference (p < 0.05) vs control group, amount of active GLP-1 secreted: 10 mM, Student's t-test; for Amount of active GLP-1 secreted (relative value to control group as 100), average value: cyclic dipeptide 10 mM with 10 μM Sitagliptin phosphate, group with no cyclic dipeptide = 100
How it was run: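 NCI-H716 cells were cultured 48 h, then exposed 1 hour to cyclic dipeptide at 10 mM final with 10 μM sitagliptin in PBS(+). Active GLP-1 in the supernatant was measured by ELISA and expressed relative to the no-dipeptide group (=100).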

[2] = system: C57/BL6J mice; assay: In vivo plasma GLP-1 level-increasing action: plasma active GLP-1 level (ELISA) after oral administration; settings: Table 7, Experiment 2, 10 mg/kg oral; for Significant difference (p < 0.05) vs control group, plasma active GLP-1 level: 30 minutes, Student's t-test; for Plasma active GLP-1 level (relative value to control group as 100), average value: blood 30 minutes after, 0.5% CMC-Na group = 100
How it was run: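 Male C57BL/6J mice, habituated 1 week, deprived of food 5.5 h and water 2 h, then dosed orally with compound at 10 mg/kg in 0.5% CMC-Na. Vena cava blood taken 30 min later under anaesthesia, with heparin and sitagliptin added; plasma active GLP-1 by ELISA, relative to vehicle group set at 100.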

SMILES | Significant difference (p < 0.05) vs control group, amount of active GLP-1 secreted [1] | Amount of active GLP-1 secreted (relative value to control group as 100), average value [1] | Significant difference (p < 0.05) vs control group, plasma active GLP-1 level [2] | Plasma active GLP-1 level (relative value to control group as 100), average value [2]
NC(N)=NCCC[C@@H]1NC(=O)[C@@H]2CCCN2C1=O [compound 209, cyclo-arginyl-proline] | Yes | 441 | Yes | 315
NC(=O)CC1NC(=O)CNC1=O (centres unmarked) [compound 215, cyclo-asparaginyl-glycine] | Yes | 611 | Yes | 305
